What all share (assay): ≥ marks a high value that may be exact or a test limit, other limits are often not marked, values filed in µg/mL are converted to µM
The subject of test [1] is Staphylococcus aureus NCTC 10788.
Test [2] concerns Enterococcus faecalis NCTC 12697.
For test [3], the system named is Candida albicans NCPF 1467.
The subject of test [4] is Escherichia coli NCTC 10418.
For test [5], the system named is Staphylococcus aureus ATCC 12493.
Test [6] has as its system Pseudomonas aeruginosa ATCC 27853.
Test [7] concerns Vibrio ordalii KCCM 41669.
Test [8] has as its system Streptococcus iniae FP5228.
Test [9] deals with Vibrio anguillarum TR14001NF.
The test system of test [10] is Vibrio campbellii KCCM 40684.
Test [11] has as its system Streptococcus parauberis KSP 28.
Test [12] deals with Vibrio harveyi ATCC 14126.
The subject of test [13] is Streptococcus parauberis PH0710.
In test [14] the test system is Edwardsiella piscicida FSW 910410.
Test [15] deals with Vibrio alginolyticus KCCM 2928.
Test [16] relates to Escherichia coli.
The test system of test [17] is Serratia marcescens.
Test [18] concerns Micrococcus luteus ATCC 4698.
The test system of test [19] is Salmonella enterica subsp. enterica serovar Typhimurium ATCC 14028.
For test [20], the system named is Bacillus subtilis KCTC 1021.
Test [21] has as its system Pseudomonas aeruginosa ATCC 9027.
The test system of test [22] is Klebsiella pneumoniae ATCC 10031.
Test [23] concerns Shigella dysenteriae ATCC 9752.
Test [24] deals with Escherichia coli K12 MG1655.
The subject of test [25] is Bacillus subtilis 168 HT.
The subject of test [26] is Staphylococcus haemolyticus 527.
The test system of test [27] is Staphylococcus aureus ST88.
The subject of test [28] is Pseudomonas aeruginosa PAO1.
The subject of test [29] is Staphylococcus aureus ATCC 6538P.
Test [30] concerns Escherichia coli BL21.
Test [31] deals with Staphylococcus aureus ATCC BAA-41.
The test system of test [32] is Staphylococcus epidermidis.
Test [33] concerns Saccharomyces cerevisiae NBRC 10217.
The subject of test [34] is Escherichia coli NBRC 14237.
Test [35] deals with Staphylococcus aureus NBRC 12732.
The subject of test [36] is Staphylococcus epidermidis 09B2490.
In test [37] the test system is Staphylococcus aureus ATCC 2592.
Test [38] relates to Staphylococcus epidermidis 09A3726.
Test [39] relates to Cutibacterium acnes ATCC 11827.
In test [40] the test system is Cutibacterium acnes ATCC 6919.
Test [41] deals with Cutibacterium acnes.

The text below walks through data of DBAASP.

Values after ≈ are worked out from the molar mass of the structure shown.

The MIC is the lowest concentration found to suppress growth. On to `CC[C@H](C)[C@H](NC(=O)[C@H](CCCCN)NC(=O)[C@@H]1CCCN1C(=O)[C@H](CC(C)C)NC(=O)[C@@H](N)Cc1ccccc1)C(=O)N[C@@H](CC(C)C)C(=O)N[C@@H](CCCCN)C(=O)N[C@H](C(=O)N[C@@H](C)C(=O)N[C@@H](C)C(=O)N[C@@H](CCCCN)C(N)=O)C(C)C` [FLPKILKVAAK], for which the MIC is at least 256 µM in test [1]; at least 512 µM in test [2]; at least 256 µM in [3]; at least 512 µM in test [4]; at least 512 µM in test [5]; over 512 µM in [6].
As for `CC[C@H](C)[C@H](NC(=O)[C@H](CCCCN)NC(=O)[C@@H](NC(=O)[C@@H](N)Cc1ccccc1)[C@@H](C)O)C(=O)N[C@@H](Cc1ccc(O)cc1)C(=O)NCC(=O)N[C@@H](CO)C(=O)N[C@@H](CCCN=C(N)N)C(=O)N[C@@H](CC(C)C)C(=O)N[C@@H](CCC(N)=O)C(=O)N[C@@H](CCCCN)C(=O)N[C@H](C(=O)N[C@@H](CC(C)C)C(=O)NCC(=O)N[C@@H](CC(N)=O)C(=O)O)C(C)C` [FTKIYGSRLQKVLGN], the MIC in test [7] was at least 205 µM; in [8], at least 51.3 µM; in [9] it was at least 290 µM; in test [10], at least 51.3 µM; in test [11], at least 290 µM; in test [12], at least 51.3 µM. The MIC in [13] was at least 103 µM; in test [14] it was at least 290 µM; in test [15], at least 205 µM.
As to `CC[C@H](C)[C@H](NC(=O)CN)C(=O)N[C@@H](CC(C)C)C(=O)N[C@@H](CC(=O)O)C(=O)N[C@H](C(=O)N[C@@H](CC(C)C)C(=O)N[C@@H](CCCCN)C(=O)N[C@@H](CCC(N)=O)C(=O)N[C@@H](Cc1ccccc1)C(=O)N[C@@H](C)C(=O)N[C@@H](CCCCN)C(=O)NCC(=O)N[C@H](C(=O)NCC(=O)N[C@@H](CCCCN)C(=O)N[C@@H](Cc1c[nH]c2ccccc12)C(=O)N[C@@H](CC(C)C)C(=O)N[C@H](C(=O)N[C@@H](CCCCN)C(=O)NCC(=O)N[C@@H](C)C(=O)N[C@@H](C)C(=O)N[C@@H](CCC(N)=O)C(=O)O)C(C)C)C(C)C)[C@@H](C)O` [GILDTLKQFAKGVGKWLVKGAAQ], the MIC is 10.3 µM (≈ 25 µg/mL) in [16]; at least 82.3 µM in test [17]; 1.03 µM (≈ 2.5 µg/mL) in test [18]; 51.5 µM (≈ 125 µg/mL) in test [19]; 10.3 µM (≈ 25 µg/mL) in [20]; 51.5 µM (≈ 125 µg/mL) in test [21]. For the same compound, the MIC in test [22] worked out at 10.3 µM (≈ 25 µg/mL); in [23], 20.6 µM (≈ 50 µg/mL).
Consider `CC[C@H](C)[C@H](N)C(=O)NCC(=O)N[C@@H](CCCN=C(N)N)C(=O)N[C@@H](Cc1cnc[nH]1)C(=O)N[C@@H](Cc1ccccc1)C(=O)N[C@@H](CCCCN)C(=O)N[C@@H](CCCN=C(N)N)C(=O)N[C@@H](CCCN=C(N)N)C(=O)N[C@@H](CC(N)=O)C(=O)N[C@@H](CO)C(=O)N[C@H](C(=O)N[C@@H](Cc1c[nH]c2ccccc12)C(=O)NCC(=O)N[C@H](C(=O)N[C@@H](CS)C(=O)N[C@@H](Cc1c[nH]c2ccccc12)C(=O)N[C@@H](Cc1ccccc1)C(=O)O)[C@@H](C)CC)[C@@H](C)CC` [IGRHFKRRNSIWGICWF], for which the minimum inhibitory concentration (MIC) was 14.8 µM (≈ 32.2 µg/mL) in test [24], 14.8 µM (≈ 32.2 µg/mL) in test [25], 14.8 µM (≈ 32.2 µg/mL) in test [26] and at least 100 µM in [27].
For the compound `CC[C@H](C)[C@H](NC(=O)[C@H](CCCCN)NC(=O)[C@H](CCCCN)NC(=O)[C@H](Cc1ccccc1)NC(=O)[C@H](CC(C)C)NC(=O)[C@H](CCCCN)NC(=O)[C@H](Cc1c[nH]c2ccccc12)NC(=O)[C@@H](N)CCCCN)C(=O)NCC(=O)N[C@@H](C)C(=O)N[C@H](C(=O)N[C@@H](CC(C)C)C(=O)N[C@@H](CCCCN)C(=O)N[C@@H](CCCCN)C(=O)N[C@@H](CC(C)C)C(=O)O)C(C)C` [KWKLFKKIGAVLKKL], the MIC in test [28] came to 2.83 µM (≈ 5.09 µg/mL); in [29] it was 5.66 µM (≈ 10.2 µg/mL); in test [30], 2 µM (≈ 3.6 µg/mL); in test [31], 8 µM (≈ 14.4 µg/mL); in test [32] it was 0.354 µM (≈ 0.637 µg/mL).
As to `CC[C@H](C)[C@H](NC(=O)[C@@H](N)[C@@H](C)O)C(=O)N[C@@H](CC(N)=O)C(=O)N[C@@H](CCCCN)C(=O)N[C@@H](CCCCN)C(=O)N[C@@H](Cc1ccccc1)C(=O)N[C@@H](CCCN=C(N)N)C(=O)N[C@@H](Cc1c[nH]c2ccccc12)C(=O)N[C@@H](Cc1cnc[nH]1)C(=O)NCC(=O)N[C@@H](CCCCN)C(=O)N[C@@H](CCCN=C(N)N)C(=O)N[C@@H](CCCCN)C(=O)N[C@@H](Cc1c[nH]c2ccccc12)C(=O)N[C@@H](Cc1c[nH]c2ccccc12)C(=O)N[C@@H](CC(C)C)C(=O)N[C@@H](CCCN=C(N)N)C(=O)N[C@@H](Cc1ccccc1)C(=O)N[C@H](C(=O)N[C@@H](CCCCN)C(=O)N[C@@H](CCC(N)=O)C(=O)O)C(C)C` [TINKKFRWHGKRKWWLRFVKQ], the MIC turned out to be 6.25 µM (≈ 17.8 µg/mL) in test [33], 3.12 µM (≈ 8.89 µg/mL) in test [34] and 3.12 µM (≈ 8.89 µg/mL) in test [35].
Take `CC(C)[C@H](N)C(=O)N[C@@H](CCCCN)C(=O)N[C@@H](CCCN=C(N)N)C(=O)N[C@@H](Cc1c[nH]c2ccccc12)C(=O)N[C@@H](CCCCN)C(=O)N[C@@H](CCCCN)C(=O)N[C@@H](Cc1c[nH]c2ccccc12)C(=O)N[C@@H](Cc1c[nH]c2ccccc12)C(=O)N[C@@H](CCCN=C(N)N)C(=O)N[C@@H](CCCCN)C(=O)N[C@@H](Cc1c[nH]c2ccccc12)C(=O)N[C@@H](CCCCN)C(=O)N[C@@H](CCCCN)C(=O)N[C@@H](Cc1c[nH]c2ccccc12)C(=O)N[C@H](C(N)=O)C(C)C` [VKRWKKWWRKWKKWV]: the MIC in test [36] is 1.03 µM (≈ 2.3 µg/mL); in [37], 1.03 µM (≈ 2.3 µg/mL); in [38], 2.11 µM (≈ 4.7 µg/mL); in test [39], 0.269 µM (≈ 0.6 µg/mL); in test [40], 0.269 µM (≈ 0.6 µg/mL); in [41] it was 0.269 µM (≈ 0.6 µg/mL).
